Test results published in patent US10591496B2, “Analyte extraction apparatus and method” (Sphere Medical Limited, priority 2013, dated 2020).

Assays:
[1] = free and bound Vancomycin fractions by SPE extraction and Gibbs reaction colorimetry; assay type: in vitro ADME; conditions: commercially available whole human serum spiked with 29 μM Vancomycin, absorbance at 589 nm, n=3, error = standard deviation
Description: A 1 ml whole serum sample (WHS) spiked with Vancomycin is applied to a 30 mg/1 ml reversed phase Strata™-X (polystyrene-divinylbenzene-N-vinylpyrrolidone copolymer) SPE column from Phenomenex (Torrance, Calif.). The column is washed firstly with 2 ml water to remove weakly bound impurities. This washing step may be repeated if necessary. Then a known volume (1 ml) of an organic solvent such as, but not limited to, methanol is used to elute the free Vancomycin fraction from the sorbent. This optionally may be followed by another organic washing step, e.g. another washing step with an organic solvent, which may be the same solvent or a different solvent as used in the elution step. The bound Vancomycin fraction is then eluted from the SPE column using a known volume (0.5 ml) of a mixture of one-third water and two-thirds methanol (by volume).
A 350 μl fraction of each elute is then transferred into separate vials. Then 50 μl of 3.625 mM Gibbs in methanol is added to each vial, followed by 40 μl of 0.4 M sodium hydroxide in borate buffer or water, which initiates the coupling reaction and results in an immediate colour change. After a shake, typically 350 μl of each mixture is transferred into a cuvette and their spectra are measured via a spectrophotometer. […]

[2] = Zeitlinger et al. 2011, cited from earlier work

CN[C@H](CC(C)C)C(=O)N[C@H]1C(=O)N[C@@H](CC(N)=O)C(=O)N[C@H]2C(=O)N[C@H]3C(=O)N[C@H](C(=O)N[C@H](C(=O)O)c4cc(O)cc(O)c4-c4cc3ccc4O)[C@H](O)c3ccc(c(Cl)c3)Oc3cc2cc(c3O[C@@H]2O[C@H](CO)[C@@H](O)[C@H](O)[C@H]2O[C@H]2C[C@](C)(N)[C@H](O)[C@H](C)O2)Oc2ccc(cc2Cl)[C@H]1O [Vancomycin]
percentage of Vancomycin free ([1]; methanol elute): 63±12% | percentage of Vancomycin bound ([1]; water/methanol (1:2) elute): 37±2% | mean fraction bound ([2]; often quoted mean): 55% | protein bound (variation) ([2]; range of protein binding): 10-82%
